We go through one compound from ChEMBL document CHEMBL5365457, “Selective HDAC3 Inhibitors with Potent In Vivo Antitumor Efficacy against Triple-Negative Breast Cancer” (J Med Chem, 2023).

For data set [1], the system named is 4T1. The data set is described as follows: Antitumor activity against mouse 4T1 cells implanted in BALB/c mouse assessed as reduction in Ki-67 protein level in tumor at 5 to 15 mg/kg, ip by Western blot analysis. The format is functional, organism-based. The conditions noted are these: dose 5-15 mg/kg. (In western blotting, separated proteins are transferred to a membrane and probed.)

A short description of data set [2]: Cmax in Wistar rat at 15 mg/kg, ip measured upto 24 hrs by HPLC analysis. It is filed as ADME, organism-based. On the set-up: dose 15 mg/kg, time < 24 hrs, route ip. The conditions noted are these: in vivo.
Data set [3] can be described thus: Toxicity in BALB/c mouse implanted with mouse 4T1 cells assessed as spleen fibrosis at 5 to 15 mg/kg, ip measured after 21 days. The format is organism-based. The following applies: in vivo, 504 h, dose 5-15 mg/kg, time 21 day.
Another data set deals with MDA-MB-231. The data set is described as follows: Cytotoxicity against wild type human MDA-MB-231 cells assessed as reduction in cell viability incubated for 72 hrs by MTT assay. It is filed as functional, cell-based. The following applies: MDA-MB-231, 72 h. In general terms: Formazan colour is commonly taken as a measure of viable cells.
Data set [4] deals with 4T1. In words: Antitumor activity against mouse 4T1 cells implanted in BALB/c mouse assessed as upregulation of caspase-7 level in tumor at 5 to 15 mg/kg, ip by Western blot analysis. The following applies: dose 5-15 mg/kg. The format is functional, organism-based.
The nature of data set [5]: Toxicity in BALB/c mouse implanted with mouse 4T1 cells assessed as effect on cell size in heart at 5 to 15 mg/kg, ip measured after 21 days by H and E staining based assay. The following applies: in vivo, 504 h, dose 5-15 mg/kg, time 21 day. It is filed as organism-based.
Data set [6] in a line: Selectivity ratio of IC50 for cytotoxicity against human HEK293 cells assessed as inhibition of cell growth to IC50 for cytotoxicity against human MCF7 cells assessed as inhibition of cell growth. It is filed as toxicity, cell-based. The conditions noted are these: HEK293 cells versus MCF7 cells, read-out: Ratio IC50.
For data set [7], the system named is 4T1. The data set is described as follows: Induction of apoptosis in mouse 4T1 cells at 110 nM incubated for 72 hrs by annexin/PI staining based flow cytometry analysis (reference value: 1.35%). The format is functional. (In flow cytometry, cells or beads pass a laser one at a time.)
The nature of data set [8]: Selectivity ratio of IC50 for cytotoxicity against human MCF-10A cells assessed as inhibition of cell growth to IC50 for cytotoxicity against human MCF7 cells assessed as inhibition of cell growth. It is filed as toxicity, cell-based. The conditions noted are these: MCF-10A cells versus MCF7 cells, read-out: Ratio IC50.
A short description of data set [9]: Toxicity in BALB/c mouse implanted with mouse 4T1 cells assessed as effect on cell shape in liver at 5 to 15 mg/kg, ip measured after 21 days by H and E staining based assay. It is filed as organism-based. The following applies: in vivo, 504 h, dose 5-15 mg/kg, time 21 day.
The nature of data set [10]: Metabolic stability in rat liver microsome assessed as half life preincubated for 5 mins followed by NADPH addition and measured after 60 mins by HPLC analysis. It is filed as ADME. The conditions noted are these: liver microsomes, time 65 min.
Data set [11] is described as follows: Toxicity in BALB/c mouse implanted with mouse 4T1 cells assessed as kidney damage at 5 to 15 mg/kg, ip measured after 21 days by H and E staining based assay. It is filed as organism-based. The following applies: in vivo, 504 h, dose 5-15 mg/kg, time 21 day.
Data set [12] can be described thus: Metabolic stability in rat liver microsome assessed as intrinsic clearance preincubated for 5 mins followed by NADPH addition and measured after 60 mins by HPLC analysis. The following applies: liver microsomes, time 65 min, read-out: CLH. The format is ADME.
Data set [13] is described as follows: Half life in Wistar rat at 5 mg/kg, ip measured upto 24 hrs by HPLC analysis. The format is ADME, organism-based. The conditions noted are these: in vivo.
The target of another data set is Histone deacetylase 4 (Homo sapiens, UniProt P56524). The data set is described as follows: Inhibition of HDAC4 (unknown origin) incubated for 30 mins by fluorescence based microplate analysis.
Histone deacetylase 4, sequence (P56524 whole entry): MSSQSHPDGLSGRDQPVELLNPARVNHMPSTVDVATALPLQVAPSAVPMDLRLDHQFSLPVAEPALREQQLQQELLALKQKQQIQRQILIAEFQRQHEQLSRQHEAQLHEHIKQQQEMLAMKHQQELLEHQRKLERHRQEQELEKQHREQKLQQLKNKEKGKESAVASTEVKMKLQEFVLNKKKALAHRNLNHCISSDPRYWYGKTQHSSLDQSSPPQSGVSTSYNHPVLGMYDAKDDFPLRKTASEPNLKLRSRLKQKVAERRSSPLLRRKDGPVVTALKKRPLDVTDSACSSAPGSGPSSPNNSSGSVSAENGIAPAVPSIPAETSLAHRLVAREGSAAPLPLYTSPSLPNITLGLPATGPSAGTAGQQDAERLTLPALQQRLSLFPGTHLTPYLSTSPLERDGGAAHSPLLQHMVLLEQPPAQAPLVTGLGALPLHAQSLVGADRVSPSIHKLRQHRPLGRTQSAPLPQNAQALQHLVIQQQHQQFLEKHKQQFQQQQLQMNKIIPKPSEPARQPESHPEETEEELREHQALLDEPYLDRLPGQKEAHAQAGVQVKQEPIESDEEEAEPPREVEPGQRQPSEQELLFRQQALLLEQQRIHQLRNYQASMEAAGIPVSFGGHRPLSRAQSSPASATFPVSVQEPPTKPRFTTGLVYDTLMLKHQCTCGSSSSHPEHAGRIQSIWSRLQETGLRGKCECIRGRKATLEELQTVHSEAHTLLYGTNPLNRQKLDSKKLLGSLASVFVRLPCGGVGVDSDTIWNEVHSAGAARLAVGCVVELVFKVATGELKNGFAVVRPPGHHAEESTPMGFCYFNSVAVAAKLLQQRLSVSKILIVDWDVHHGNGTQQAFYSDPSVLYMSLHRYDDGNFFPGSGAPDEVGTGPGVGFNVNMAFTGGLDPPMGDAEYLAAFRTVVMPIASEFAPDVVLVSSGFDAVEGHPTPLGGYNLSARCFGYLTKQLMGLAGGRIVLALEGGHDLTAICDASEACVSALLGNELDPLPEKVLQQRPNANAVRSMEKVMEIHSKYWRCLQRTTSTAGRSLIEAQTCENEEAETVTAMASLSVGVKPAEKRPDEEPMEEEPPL
Data set [14] is described as follows: Selectivity ratio of IC50 for cytotoxicity against human MCF-10A cells assessed as inhibition of cell growth to IC50 for cytotoxicity against human MDA-MB-453 cells assessed as inhibition of cell growth. The format is toxicity, cell-based. The conditions noted are these: MCF-10A cells versus MDA-MB-453 cells, read-out: Ratio IC50.
Data set [15] deals with 4T1. The data set is described as follows: Antitumor activity against mouse 4T1 cells implanted in BALB/c mouse assessed as increase in number of lung nodules at 15 mg/kg, ip measured for 7 days by fluorescence based assay. It is filed as functional, organism-based. The conditions noted are these: time 7.0 day.
The subject of data set [16] is 4T1. In words: In-vivo inhibition of HDAC3 in ip dosed BALB/c mouse implanted with mouse 4T1 cells assessed as hyperacetylation of H4K12 level by Western blot analysis. The conditions noted are these: dose 5-15 mg/kg. It is filed as functional, organism-based.
Data set [17] is described as follows: AUMC (0 to infinity) in Wistar rat at 5 mg/kg, ip measured upto 24 hrs by HPLC analysis. It is filed as ADME, organism-based. The conditions noted are these: in vivo.
A further data set deals with Histone deacetylase 3 (Homo sapiens, UniProt O15379). The data set is described as follows: Inhibition of human recombinant HDAC3 incubated for 15 mins by fluorescence based microplate analysis.
Histone deacetylase 3, sequence (O15379 whole entry): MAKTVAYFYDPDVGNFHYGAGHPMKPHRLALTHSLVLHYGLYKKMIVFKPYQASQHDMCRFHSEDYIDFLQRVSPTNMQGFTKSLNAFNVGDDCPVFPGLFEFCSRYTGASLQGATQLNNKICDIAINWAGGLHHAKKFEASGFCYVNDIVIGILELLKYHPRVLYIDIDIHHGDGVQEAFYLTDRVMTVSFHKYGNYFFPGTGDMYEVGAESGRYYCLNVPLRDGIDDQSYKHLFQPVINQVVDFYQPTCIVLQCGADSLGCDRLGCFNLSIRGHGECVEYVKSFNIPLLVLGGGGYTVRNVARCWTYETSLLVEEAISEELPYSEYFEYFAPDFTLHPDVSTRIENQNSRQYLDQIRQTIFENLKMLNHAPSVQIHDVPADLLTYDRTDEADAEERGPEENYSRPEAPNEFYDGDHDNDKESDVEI
A short description of data set [18]: Selectivity ratio of IC50 for cytotoxicity against human HEK293 cells assessed as inhibition of cell growth to IC50 for cytotoxicity against human MDA-MB-231 cells assessed as inhibition of cell growth. The format is toxicity, cell-based. The conditions noted are these: HEK293 cells versus MDA-MB-231 cells, read-out: Ratio IC50.
The target in data set [19] is T1, Histone deacetylase 3 (Mus musculus) (UniProt O88895).
T1 sequence (whole entry): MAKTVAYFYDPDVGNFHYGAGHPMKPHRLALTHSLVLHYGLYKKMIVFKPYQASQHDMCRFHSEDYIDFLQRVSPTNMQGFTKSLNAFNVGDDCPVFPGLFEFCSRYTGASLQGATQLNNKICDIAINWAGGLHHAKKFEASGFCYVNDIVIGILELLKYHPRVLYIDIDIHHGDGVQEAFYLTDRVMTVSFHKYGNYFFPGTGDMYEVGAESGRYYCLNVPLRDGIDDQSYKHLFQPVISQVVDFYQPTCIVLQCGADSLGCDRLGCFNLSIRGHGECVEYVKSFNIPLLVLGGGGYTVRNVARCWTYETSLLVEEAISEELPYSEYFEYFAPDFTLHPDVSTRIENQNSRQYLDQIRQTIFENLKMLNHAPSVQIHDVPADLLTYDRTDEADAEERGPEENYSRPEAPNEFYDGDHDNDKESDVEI
The data set is described as follows: Inhibition of HDAC3 in mouse 4T1 cells assessed as increase in acetylation of H3K9 level at 1 uM incubated for 72 hrs by western blot analysis. The format is cell-based.

The subject of data set [20] is 4T1. The data set is described as follows: Cytotoxicity against mouse 4T1 cells assessed as inhibition of cell growth incubated for 72 hrs by MTT assay. The following applies: 4T1, 72 h. It is filed as functional, cell-based.

The source made the active and inactive calls. Where only a bound is given, the exact number is not on record here.

Take `CCCNNC(=O)c1cnc(NCc2ccc(OC)cc2)cn1`: the result in the data set on 4T1 [1], in the data set with 4T1 [4] and with 4T1 [15] was Active. Moreover, in data set [2], the concentration peaked (Cmax) at 9580 ng/mL. For the same compound, the Activity result in data set [3] is recorded as “Non-Toxic”; in data set [5] it was “Non-Toxic”; in the data set on 4T1 [7] it was 36.8%; in data set [9], “Non-Toxic”; in [11], “Non-Toxic”. In addition, the IC50 (commonly the midpoint of a concentration-inhibition curve) in the data set on MDA-MB-231 is 743 nM; at Histone deacetylase 4 it was greater than 20000 nM; on Histone deacetylase 3, 14 nM; in the data set on 4T1 [20], 550 nM. Also, the selectivity ratio turned out to be 286 in data set [6], 385 in data set [8], 385 in data set [14] and 286 in data set [18]. The half-life (commonly the time needed for the level to fall by half in the phase considered) is 0.639 h in [10] and 7.19 h in [13]. Moreover, the microsomal CLint in [12] stood at 36.2 µL/min/mg. For the same compound, the inhibition result in the data set on 4T1 [16] was “Dose-Dependent Effect”. Further, the AUMC in data set [17] turned out to be 29.08 ug/ml.hr^2. Moreover, the inhibition result in data set [19] is “Active”.
